# Experimental data from ChEMBL document CHEMBL6153133, “Discovery of Diphenyl Ether Derivatives as Novel BKCa Channel Activators: Structure-Activity Relationship, Cryo-EM Complex Structures, and In Vivo Animal Studies” (J Med Chem, 2025).
# Calls of active or inactive are those of the source. The rule behind the calls is not given here.
# Tests used:
# [1] = target: T1, Calcium-activated potassium channel subunit alpha-1 (Homo sapiens, UniProt Q12791); assay: Activation of BKca channel (unknown origin) by cell based method
# [2] = target: T1, Calcium-activated potassium channel subunit alpha-1; assay: Activation of BKca channel (unknown origin) by cell-based fluorescence assay
# [3] = tested on: Calcium-activated potassium channel subunit alpha-1 (Homo sapiens), Q12791 [UNDEFINED MUTATION]; assay: Activation of hyperactive human BKca channel G803D/N806K mutant transfected in human AD-293 cells assessed as maximum relative fluorescence value at 5 uM preincubated for 15 mins followed by Tl+ stimulus buffer addition and measured after 80 sec by Flexstation3 multimode microplate reader analysis relative to control; assay type: cell-based; settings: time 980.0 sec
# [4] = target: Calcium-activated potassium channel subunit alpha-1 (Homo sapiens, UniProt Q12791, G803D/N806K); assay: (§1) Activation of hyperactive human BKca channel G803D/N806K mutant transfected in human AD-293 cells incubated for 15 mins by Flexstation3 multimode microplate reader analysis; assay type: cell-based
# [5] = tested on: Calcium-activated potassium channel subunit alpha-1 (Homo sapiens), Q12791 [UNDEFINED MUTATION]; assay: Activation of hyperactive human BKca channel G803D/N806K mutant transfected in human AD-293 cells assessed as maximum relative fluorescence value at 1 uM preincubated for 15 mins followed by Tl+ stimulus buffer addition and measured after 80 sec by Flexstation3 multimode microplate reader analysis relative to control; assay type: cell-based; settings: time 980.0 sec
# [6] = tested on: Calcium-activated potassium channel subunit alpha-1 (Homo sapiens), Q12791 [UNDEFINED MUTATION]; assay: as §1; assay type: cell-based
# [7] = Metabolic stability in rat liver microsomes assessed as parent compound remaining at 1 uM preincubated for 5 mins followed by NADPH addition and measured after 30 mins by LC-MS/MS analysis; assay type: ADME, Microsome; settings: read-out: Stability
# [8] = Metabolic stability in human liver microsomes assessed as parent compound remaining at 1 uM preincubated for 5 mins followed by NADPH addition and measured after 30 mins by LC-MS/MS analysis; assay type: ADME, Microsome; settings: read-out: Stability
# Rattus norvegicus [9] = assay: Reversal of urinary incontinence in male spontaneous hypertensive rat model assessed as decrease in urine volume at 100 mg/kg, po measured after 3 hrs relative to control; assay type: functional; parameters: scale not given: the % may be the effect or the level left
# [10] = AUClast in male Sprague-Dawley rat at 10 mg/kg, po by LC-MS/MS analysis; assay type: ADME, organism-based; settings: in vivo
# [11] = Cmax in male Sprague-Dawley rat at 10 mg/kg, po by LC-MS/MS analysis; assay type: ADME, organism-based; settings: in vivo
# Rattus norvegicus [12] = assay: Reversal of urinary incontinence in male spontaneous hypertensive rat model assessed as decrease in urine frequency at 100 mg/kg, po measured after 3 hrs relative to control; assay type: functional; parameters: scale not given: the % may be the effect or the level left
# [13] = Half-life in male Sprague-Dawley rat at 10 mg/kg, po by LC-MS/MS analysis; assay type: ADME, organism-based; settings: in vivo
# [14] = Toxicity in male spontaneous hypertensive rat model at 100 mg/kg, po; assay type: organism-based; settings: in vivo
# [15] = Tmax in male Sprague-Dawley rat at 10 mg/kg, po by LC-MS/MS analysis; assay type: ADME, organism-based; settings: in vivo
# [16] = Activation of rat BKca channel extracted from Xenopus laevis Oocytes by patch-clamp electrophysiology recordings; assay type: cell-based; settings: Oocyte
# [17] = Permeability of compound at pH 7.4 measured after 4 hrs by GIT-PAMPA assay; assay type: ADME; settings: read-out: permeability
# [18] = Metabolic stability in human liver microsomes assessed as parent compound remaining at 1 uM preincubated for 15 mins followed by UDPGA addition and measured after 60 mins by LC-MS/MS analysis; assay type: ADME, Microsome; settings: time 75 min, read-out: Stability
# [19] = Metabolic stability in rat liver microsomes assessed as parent compound remaining at 1 uM preincubated for 15 mins followed by UDPGA addition and measured after 60 mins by LC-MS/MS analysis; assay type: ADME, Microsome; settings: time 75 min, read-out: Stability
# [20] = Oral bioavailability in male Sprague-Dawley rat at 10 mg/kg by LC-MS/MS analysis; assay type: ADME, organism-based; settings: in vivo
# [21] = AUClast in male Sprague-Dawley rat at 10 mg/kg, iv by LC-MS/MS analysis; assay type: ADME, organism-based; settings: in vivo
# [22] = Volume of distribution at steady state in male Sprague-Dawley rat at 10 mg/kg, iv by LC-MS/MS analysis; assay type: ADME, organism-based; settings: in vivo, read-out: Vdss
# [23] = Half-life in male Sprague-Dawley rat at 10 mg/kg, iv by LC-MS/MS analysis; assay type: ADME, organism-based; settings: in vivo
# [24] = Clearance in male Sprague-Dawley rat at 10 mg/kg, iv by LC-MS/MS analysis; assay type: ADME, organism-based; settings: in vivo
# Chain of Calcium-activated potassium channel subunit alpha-1 (Homo sapiens), Q12791 [UNDEFINED MUTATION] (Q12791 whole entry, looked up, stated change not applied): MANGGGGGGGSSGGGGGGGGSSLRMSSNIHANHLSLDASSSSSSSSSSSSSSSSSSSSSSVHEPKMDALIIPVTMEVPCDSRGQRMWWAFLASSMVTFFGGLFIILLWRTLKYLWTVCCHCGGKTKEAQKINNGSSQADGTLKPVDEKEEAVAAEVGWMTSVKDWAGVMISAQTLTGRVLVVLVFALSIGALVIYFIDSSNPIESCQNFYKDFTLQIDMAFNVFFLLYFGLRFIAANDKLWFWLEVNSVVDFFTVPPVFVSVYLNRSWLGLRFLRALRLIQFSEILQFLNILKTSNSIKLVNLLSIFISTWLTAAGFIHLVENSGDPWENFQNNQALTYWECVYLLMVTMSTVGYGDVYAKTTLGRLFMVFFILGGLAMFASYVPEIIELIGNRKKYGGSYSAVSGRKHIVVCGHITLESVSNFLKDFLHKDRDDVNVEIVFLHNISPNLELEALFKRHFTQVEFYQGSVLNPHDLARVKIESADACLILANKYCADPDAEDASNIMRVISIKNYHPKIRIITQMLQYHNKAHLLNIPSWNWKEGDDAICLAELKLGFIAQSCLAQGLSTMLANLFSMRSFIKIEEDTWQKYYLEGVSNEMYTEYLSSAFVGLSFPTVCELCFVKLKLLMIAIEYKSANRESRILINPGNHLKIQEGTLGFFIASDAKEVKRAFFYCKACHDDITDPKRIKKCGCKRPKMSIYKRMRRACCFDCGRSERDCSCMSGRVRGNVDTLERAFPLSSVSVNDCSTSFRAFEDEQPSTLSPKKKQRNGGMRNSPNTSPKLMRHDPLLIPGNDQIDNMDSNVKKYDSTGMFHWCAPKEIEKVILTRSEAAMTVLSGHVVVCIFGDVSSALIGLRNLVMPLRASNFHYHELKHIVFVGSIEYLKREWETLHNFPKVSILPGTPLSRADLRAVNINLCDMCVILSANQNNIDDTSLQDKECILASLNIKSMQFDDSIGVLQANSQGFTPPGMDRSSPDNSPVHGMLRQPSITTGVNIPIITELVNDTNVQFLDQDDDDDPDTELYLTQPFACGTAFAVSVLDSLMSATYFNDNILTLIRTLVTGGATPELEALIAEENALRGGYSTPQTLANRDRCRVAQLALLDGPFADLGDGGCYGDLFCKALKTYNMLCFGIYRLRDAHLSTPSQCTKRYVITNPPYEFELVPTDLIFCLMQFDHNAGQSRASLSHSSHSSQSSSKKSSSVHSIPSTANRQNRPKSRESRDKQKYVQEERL
# Chain of Calcium-activated potassium channel subunit alpha-1 (Homo sapiens, UniProt Q12791, G803D/N806K) (Q12791 whole entry, looked up, stated change not applied): as above
# T1 sequence (Q12791 whole entry): as the sequence (Q12791 whole entry, looked up, stated change not applied) above
compound,measurement,setting,value
Cc1cccc(NC(=O)c2sc(=S)n3c2[nH]c(=O)c2cc(Br)ccc23)c1,EC50,[1],2700 nM
same,EC50,[2],2700 nM
Oc1cc(O)cc(Oc2c(F)c(F)c(Cl)c(F)c2F)c1,Activity,[3],11.8%
Oc1ccc(Oc2c(F)c(F)c(C(F)(F)F)c(F)c2F)c(O)c1,EC50,[4],680 nM
same,Activity,[3]; filed as opener,102%
same,Activity,[5]; filed as opener,81.3%
Nc1ccc(Oc2c(F)c(F)c(C(F)(F)F)c(F)c2F)nc1,Activity,[6],inactive
Oc1cc(NCCCCN2CCOCC2)ccc1Oc1c(F)c(F)c(C(F)(F)F)c(F)c1F [listing 1 of 2 here],"remaining at 0.5 h, 1 µM",[7],62.5%
same,EC50,[4],9220 nM
same,"remaining at 0.5 h, 1 µM",[8],91.2%
Cl.Cl.Oc1cc(NCCCCN2CCOCC2)ccc1Oc1c(F)c(F)c(C(F)(F)F)c(F)c1F,Activity,Rattus norvegicus [9],49.2%
same,AUC(0-t),[10],223 ng·h/mL
same,Cmax,[11],72.1 ng/mL
same,Activity,Rattus norvegicus [12],43.2%
same,half-life,[13],3.7 h
same,Activity,[14],Non-toxic
same,Tmax,[15],0.7 h
NCCNc1ccc(Oc2c(F)c(F)c(C(F)(F)F)c(F)c2F)c(O)c1,Activity,[3],3.3%
Oc1ccc(Oc2cc(C(F)(F)F)cc(C(F)(F)F)c2)c(O)c1,Activity,[3]; filed as opener,99.3%
same,Activity,[5],23.7%
Nc1ccc(Oc2c(F)c(F)c(C(F)(F)F)c(F)c2F)c(N)c1,Activity,[3],10.3%
Nc1ccc(Oc2c(F)c(F)c(C(F)(F)F)c(F)c2F)c(F)c1,"remaining at 0.5 h, 1 µM",[7],12.7%
same,EC50,[4],1370 nM
same,Activity,[3]; filed as opener,83%
same,Activity,[5],17.9%
same,"remaining at 0.5 h, 1 µM",[8],14.8%
Oc1ccc(Oc2c(F)cc(C(F)(F)F)cc2F)c(O)c1,Activity,[3]; filed as opener,66.9%
Oc1ccc(Oc2ccc(Cl)c(F)c2)c(O)c1,Activity,[3],8.1%
Nc1ccc(Oc2c(F)c(F)c(C(F)(F)F)c(F)c2F)c(Cl)c1,Activity,[3]; filed as opener,75.2%
same,Activity,[5],5.3%
Fc1c(F)c(C(F)(F)F)c(F)c(F)c1Oc1ccc2[nH]cnc2c1,Activity,[3],1%
Nc1ccc(Oc2c(F)c(F)c(C(F)(F)F)c(F)c2F)c(OC(F)(F)F)c1,Activity,[3],33%
O=[N+]([O-])c1cc(O)ccc1Oc1c(F)c(F)c(C(F)(F)F)c(F)c1F,Activity,[3],0.1%
Oc1ccc(Oc2c(F)c(F)c(Cl)c(F)c2F)cc1O,Activity,[3],4%
Oc1ccc(Oc2ccc(Cl)c(Cl)c2)c(O)c1,Activity,[3],18.6%
Nc1ccc(Oc2c(F)c(F)c(C(F)(F)F)c(F)c2F)c(CO)c1,Activity,[3],37.9%
CCCNc1ccc(Oc2c(F)c(F)c(C(F)(F)F)c(F)c2F)c(O)c1,Activity,[3],28.1%
Oc1cc(NCCCCCN2CCOCC2)ccc1Oc1c(F)c(F)c(C(F)(F)F)c(F)c1F,"remaining at 0.5 h, 1 µM",[7],30.7%
same,EC50,[16],970 nM
same,Papp at 4 h,[17],56.6 ×10⁻⁶ cm/s
same,EC50,[4],2820 nM
same,"remaining at 0.5 h, 1 µM",[8],96.9%
Oc1cccc(Oc2c(F)c(F)c(Cl)c(F)c2F)c1,Activity,[3],5%
Fc1c(F)c(C(F)(F)F)c(F)c(F)c1Oc1ccc2[nH]ccc2c1,Activity,[3],1%
Fc1c(F)c(C(F)(F)F)c(F)c(F)c1Oc1ccc2[nH]ncc2c1,Activity,[3],1%
Oc1ccc(Oc2ccc(F)c(C(F)(F)F)c2)c(O)c1,Activity,[3],19.8%
NCCCCNc1ccc(Oc2c(F)c(F)c(C(F)(F)F)c(F)c2F)c(O)c1,Activity,[3],18%
Nc1cc(O)ccc1Oc1c(F)c(F)c(C(F)(F)F)c(F)c1F,Activity,[3],4.7%
Nc1ccc(Oc2c(F)c(F)c(C(F)(F)F)c(F)c2F)cn1,Activity,[6],inactive
NCCCCCNc1ccc(Oc2c(F)c(F)c(C(F)(F)F)c(F)c2F)c(O)c1,Activity,[3]; filed as opener,53.4%
Oc1ccc(Oc2cccc(C(F)(F)F)c2)c(O)c1,Activity,[3],5.5%
N#Cc1cc(N)ccc1Oc1c(F)c(F)c(C(F)(F)F)c(F)c1F,Activity,[3],8.1%
Oc1ccc(Oc2ccc(Cl)c(C(F)(F)F)c2)c(O)c1,Activity,[3]; filed as opener,74.7%
Oc1ccc(Oc2cc(Cl)cc(Cl)c2)c(O)c1,Activity,[3]; filed as opener,61.5%
CNc1ccc(Oc2c(F)c(F)c(C(F)(F)F)c(F)c2F)c(O)c1,"remaining at 1 h, 1 µM",[18],1.6%
same,"remaining at 0.5 h, 1 µM",[7],4%
same,EC50,[4],420 nM
same,Activity,[3]; filed as opener,91.7%
same,Activity,[5]; filed as opener,91.7%
same,"remaining at 0.5 h, 1 µM",[8],76%
same,"remaining at 1 h, 1 µM",[19],4.7%
Nc1ccc(Oc2c(F)c(F)c(C(F)(F)F)c(F)c2F)c(C(F)(F)F)c1,Activity,[3],38%
Oc1ccc(O)c(O)c1,Activity,[6],inactive
COc1cc(O)ccc1Oc1c(F)c(F)c(Cl)c(F)c1F,Activity,[6],inactive
Oc1ccccc1Oc1c(F)c(F)c(Cl)c(F)c1F,Activity,[3],-2.7%
COc1ccc(Oc2c(F)c(F)c(Cl)c(F)c2F)c(OC)c1,Activity,[6],inactive
COc1cc(N)ccc1Oc1c(F)c(F)c(C(F)(F)F)c(F)c1F.Cl,bioavailability,[20],9.9%
same,AUC(0-t),[10],668 ng·h/mL
same,Cmax,[11],182 ng/mL
same,AUC(0-t),[21],6260 ng·h/mL
same,half-life,[13],6.4 h
same,Vd,[22],3.5 L/kg
same,Tmax,[15],1.2 h
same,half-life,[23],2.1 h
same,clearance,[24],25 mL/min/kg
COc1ccc(Oc2c(F)c(F)c(Cl)c(F)c2F)c(O)c1,Activity,[6],inactive
Nc1ccc(Oc2c(F)c(F)c(C(F)(F)F)c(F)c2F)cc1,"remaining at 0.5 h, 1 µM",[7],18.6%
same,Activity,[3]; filed as opener,86.8%
same,Activity,[5],18.1%
same,"remaining at 0.5 h, 1 µM",[8],7.4%
COc1cc(N)ccc1Oc1c(F)c(F)c(C(F)(F)F)c(F)c1F,"remaining at 1 h, 1 µM",[18],30%
same,"remaining at 0.5 h, 1 µM",[7],7.2%
same,Papp at 4 h,[17],73.6 ×10⁻⁶ cm/s
same,EC50,[4],1210 nM
same,"remaining at 0.5 h, 1 µM",[8],87.1%
same,"remaining at 1 h, 1 µM",[19],88.8%
CCNc1ccc(Oc2c(F)c(F)c(C(F)(F)F)c(F)c2F)c(O)c1,Activity,[3]; filed as opener,65.7%
CN(C)c1ccc(Oc2c(F)c(F)c(C(F)(F)F)c(F)c2F)c(O)c1,Activity,[3],10.2%
Oc1cc(NCCCCN2CCOCC2)ccc1Oc1c(F)c(F)c(C(F)(F)F)c(F)c1F [listing 2 of 2 here],Activity,[3],9.3%
Oc1ccc(Oc2ccc(Cl)cc2)c(O)c1,Activity,[3],1.2%
Oc1c(F)c(F)c(Cl)c(F)c1F,Activity,[6],inactive
NCc1ccc(Oc2c(F)c(F)c(C(F)(F)F)c(F)c2F)c(O)c1,Activity,[6],inactive
O=[N+]([O-])c1ccc(Oc2c(F)c(F)c(C(F)(F)F)c(F)c2F)c(O)c1,Activity,[3],19.3%
Oc1ccc(Oc2c(F)c(F)c(Cl)c(F)c2F)cc1,Activity,[3],6.1%
NC(=O)c1ccc(Oc2c(F)c(F)c(C(F)(F)F)c(F)c2F)cc1,Activity,[6],inactive
NCCCNc1ccc(Oc2c(F)c(F)c(C(F)(F)F)c(F)c2F)c(O)c1,Activity,[3],2.4%
